IC50 data for three compounds are collected here from patent publication US9453000B2, “Polycyclic compound” (EISAI R&D MANAGEMENT CO., LTD., priority 2007, dated 2016).

The assay concerns Aβ42 production in rat primary neuronal culture. Description: Quantification of Aβ peptide in culture of neurons from rat fetus brain (Aβ ELISA). It counts as cell-based. Particulars: Primary cortical neuron, 72 h, rat primary cortical neurons (embryonic day 18 Wistar), three days after addition of the compound, Aβx-42 ELISA of medium, read-out: Aβ42 production reducing effect IC50. The procedure:
Quantification of Aβ Peptide in Culture of Neurons from Rat Fetus Brain
(1) Rat Primary Neuronal Culture
Primary neuronal cultures were prepared from the cerebral cortex of embryonic day 18 Wistar rats (Charles River Japan, Yokohama, Japan). Specifically, the embryos were aseptically removed from pregnant rats under ether anesthesia. The brain was isolated from the embryo and immersed in an ice-cold L-15 medium (Invitrogen Corp. Cat #11415-064, Carlsbad, Calif., USA, or SIGMA L1518, for example). The cerebral cortex was collected from the isolated brain under a stereoscopic microscope. The cerebral cortex fragments collected were enzymatically treated in an enzyme solution containing 0.25% trypsin (Invitrogen Corp. Cat #15050-065, Carlsbad, Calif., USA) and 0.01% DNase (Sigma D5025, St. Louis, Mo., USA) at 37° C. for 30 minutes to disperse the cells. Here, the enzymatic reaction was stopped by adding inactivated horse serum to the solution. The enzymatically treated solution was centrifuged at 1,500 rpm for five minutes to remove the supernatant. 5 to 10 ml of a medium was added to the resulting cell mass. Neurobasal medium (Invitrogen Corp. Cat #21103-049, Carlsbad, Calif., USA) supplemented with 2% B27 supplement (Invitrogen Corp. Cat #17504-044, Carlsbad, Calif., USA), 25 μM 2-mercaptoethanol (2-ME, WAKO Cat #139-06861, Osaka, Japan), 0.5 mM L-glutamine (Invitrogen Corp. Cat #25030-081, Carlsbad, Calif., USA), and Antibiotics-Antimycotics (Invitrogen Corp. Cat #15240-062, Carlsbad, Calif., USA) was used as the medium (Neurobasal/B27/2-ME). However, the above Neurobasal medium not supplemented with 2-ME (Neurobasal/B27) was used for the assay. The cells were redispersed by mild pipetting of the cell mass to which the medium was added. The cell dispersion was filtered through a 40-μm nylon mesh (Cell Strainer, Cat #35-2340, Becton Dickinson Labware, Franklin Lakes, N.J., USA) to remove the remaining cell mass, and thus a neuronal cell suspension was obtained. The neuronal cell suspension was diluted with the medium and then plated in a volume of 100 μl/well at an initial cell density of 5×10^5 cells/cm^2 in a 96-well polystyrene culture plate pre-coated with poly-L or D-lysine (Falcon Cat #35-3075, Becton Dickinson Labware, Franklin Lakes, N.J., USA coated with poly-L-lysine using the method shown below, or BIOCOAT™ cell environments Poly-D-lysine cell ware 96-well plate, Cat #35-6461, Becton Dickinson Labware, Franklin Lakes, N.J., USA). Poly-L-lysine coating was carried out as follows. 100 μg/ml of a poly-L-lysine (SIGMA P2636, St. Louis, Mo., USA) solution was aseptically prepared with a 0.15 M borate buffer (pH 8.5). 100 μl/well of the solution was added to the 96-well polystyrene culture plate and incubated at room temperature for one or more hours or at 4° C. overnight or longer. The coated 96-well polystyrene culture plate was washed with sterile water four or more times, and then dried or rinsed with, for example, sterile PBS or medium, and used for cell plating. The plated cells were cultured in the culture plate at 37° C. in 5% CO2-95% air for one day. Then, the total amount of the medium was replaced with a fresh Neurobasal™/B27/2-ME medium, and then the cells were cultured for further three days.
The drug was added to the culture plate on Day 4 of culture as follows. The total amount of the medium was removed from the wells, and 180 μl/well of Neurobasal medium not containing 2-ME and containing 2% B-27 (Neurobasal/B27) was added thereto. A solution of the test compound in dimethyl sulfoxide (hereinafter abbreviated as DMSO) was diluted with Neurobasal/B27 at 10-fold of the final concentration. 20 μl/well of the dilution was added to and sufficiently mixed with the medium. The final DMSO concentration was 1% or less. Only DMSO was added to the control group.
The cells were cultured for three days after addition of the compound, and the total amount of the medium was collected. […]
With `COc1nc(/C=C/c2nc3n(n2)CC[C@H]3c2ccc(F)c(F)c2)ccc1-n1cnc(C)c1` [Example 380, (S)-7-(3,4-difluorophenyl)-2-{(E)-2-[6-methoxy-5-(4-methyl-1H-imidazol-1-yl)pyridin-2-yl]vinyl}-6,7-dihydro-5H-pyrrolo[1,2-b][1,2,4]triazole], the IC50 (commonly the concentration that inhibits the measured activity by half) was 29 nM.

Turning to `COc1nc(/C=C/c2nc3n(n2)CC[C@H]3c2ccccc2C(F)(F)F)ccc1-n1cnc(C)c1` [Example 390, (S)-2-{(E)-2-[6-methoxy-5-(4-methyl-1H-imidazol-1-yl)pyridin-2-yl]vinyl}-7-(2-trifluoromethylphenyl)-6,7-dihydro-5H-pyrrolo[1,2-b][1,2,4]triazole], the IC50 turned out to be 26 nM.

`COc1nc(/C=C/c2nc3n(n2)CC[C@H]3c2cc(F)ccc2C(F)(F)F)ccc1-n1cnc(C)c1` [Example 392, (S)-7-(5-fluoro-2-trifluoromethylphenyl)-2-{(E)-2-[6-methoxy-5-(4-methyl-1H-imidazol-1-yl)pyridin-2-yl]vinyl}-6,7-dihydro-5H-pyrrolo[1,2-b][1,2,4]triazole]: the IC50 is 22 nM.
